What all share (experiment): Antibacterial susceptibility test (MIC, microbroth dilution)
Format in all cases: cell-based
(Dilution methods test growth across graded concentrations, often in twofold steps.)

Assay [1] relates to E. coli. The settings on record: 18 hours at 37° C., >90% inhibition of bacterial growth. The source says: (§1) The bacterial strains used in microbial susceptibility test were E. coli, S. aureus 29213 and B. subtilis 168. E. coli and S. aureus 29213 were obtained from the laboratory of the Hong Kong Polytechnic University. B. subtilis 168 was purchased from American Type Culture Collection (USA). The mammalian cell lines L929 (mouse peritoneal fibroblast), LCC6 (a wild type breast cancer cell line), LCC6MDR (P-gp over-expressed breast cancer cell line) were stocks in our department. Nutrient Agar, tryptone and yeast extract were purchased from Oxoid Limited (Nepean, Ontario, Canada). Luria-Bertani (LB) medium was prepared from 2 g tryptone, 1 g yeast extract, and 2 g sodium chloride in 200 ml deionized water and sterilized. Müller-Hinton broth (MHB), cation-adjusted Müller-Hinton broth (MHB) and trypticase soy broth (TSB) for microbial susceptibility test were purchased from Becton, Dickinson and Company (New Jersey, USA). A microplate reader (Bio-Rad Laboratories Model 680) is used to measure bacterial growth and cytotoxicity. An Olympus FSX100® Bio Imaging Navigator Microscope was used to observe the morphology of B. subtilis cell.
(§2) The minimum inhibitory concentration (MIC) of each compound was determined using microbroth dilution method according to the National Committee for Clinical Laboratory Standards (CLSI) guidelines. All Compounds were dissolved in DMSO and diluted in a serial two-fold manner. A single colony of bacterial strain on a TSB agar plate was inoculated in 5 mL MHB or CA-MHB. The bacterial cells were incubated at 37° C. until the optimal density (OD600) of the growing cells reached 1.0. The cells were then diluted to a final concentration of approximately 5×10^5 CFU/mL in a serial two-fold manner in a 96-well microtiter plate (Iwaki, Japan). Compound 3 and PC190723 were used as positive controls. […] Table 1 below summarizes the MIC of all synthesized compounds.

For assay [2], the system named is S. aureus 29213. The following applies: 18 hours at 37° C., >90% inhibition of bacterial growth.
Description: as §1, §2

For assay [3], the system named is B. subtilis 168. The settings on record: 18 hours at 37° C., >90% inhibition of bacterial growth, read-out: MIC, BS 168.
Description: as §1, §2

Values after ≈ are worked out from the molar mass of the structure shown. Read-outs that look alike come from different tables or passages of the source.

Consider `CCCCCCCCNc1ccc(F)c(C(N)=O)c1F` [Compound F333, 2,6-difluoro-3-(octylamino)benzamide], for which the MIC (in general, the lowest concentration found to suppress growth) in assay [1] (Escherichia coli) was above 100 µM; in assay [2] (Staphylococcus aureus, 29213), 50 µM (≈ 14.2 µg/mL); in assay [3] (Bacillus subtilis, 168), 6.25 µM (≈ 1.78 µg/mL).
For `CCCCCCCCCCNc1ccc(F)c(C(N)=O)c1F` [Compound F334, 3-(decylamino)-2,6-difluorobenzamide], in that order: above 100 µM, above 100 µM and above 100 µM.
The matching figures for `CCCCCCCCCNc1ccc(F)c(C(N)=O)c1` [Compound F342, 2-fluoro-5-(nonylamino)benzamide]: above 100 µM, above 100 µM and 25 µM (≈ 7.01 µg/mL).
For the compound `CCCCCCCCCNc1cc(C(N)=O)c(F)cc1F` [Compound F345, 2,4-difluoro-5-(nonylamino)benzamide], the MIC in assay [1] (Escherichia coli) is above 100 µM; in assay [2] (Staphylococcus aureus, 29213) it was above 100 µM; in assay [3] (Bacillus subtilis, 168) it was 100 µM (≈ 29.8 µg/mL).
For `CCCCOCCCCNc1ccc(F)c(C(N)=O)c1F` [Compound F350, 3-((4′-butoxy)butylamino)-2,6-difluorobenzamide], the MIC in assay [1] (Escherichia coli) is above 100 µM; in assay [2] (Staphylococcus aureus, 29213), above 100 µM; in assay [3] (Bacillus subtilis, 168), above 100 µM.
For `NC(=O)c1c(F)ccc(N2CCCC2)c1F` [Compound F357, 2,6-difluoro-3-(pyrrolidin-1-yl)benzamide], the minimum inhibitory concentration (MIC) is above 100 µM in assay [1] (Escherichia coli); above 100 µM in assay [2] (Staphylococcus aureus, 29213); above 100 µM in assay [3] (Bacillus subtilis, 168).
With `NC(=O)c1c(F)ccc(N2CCCCC2)c1F` [Compound F358, 2,6-difluoro-3-(piperidin-1-yl)benzamide], the MIC is above 100 µM in assay [1] (Escherichia coli); above 100 µM in assay [2] (Staphylococcus aureus, 29213); above 100 µM in assay [3] (Bacillus subtilis, 168).
In the case of `NC(=O)c1c(F)ccc(NCc2ccc(F)c(F)c2)c1F` [Compound F362, 3-((3′,4′-difluorobenzyl)amino)-2,6-difluorobenzamide], the MIC in assay [1], in assay [2] and in assay [3] was above 100 µM throughout.
With `NC(=O)c1c(F)ccc(N(Cc2ccc(F)c(F)c2)Cc2ccc(F)c(F)c2)c1F` [Compound F363, 3-(bis(3′,4′-difluorobenzyl)amino)-2,6-difluorobenzamide], the MIC in assay [1] is on record as above 100 µM; in assay [2], 50 µM (≈ 21.2 µg/mL); in assay [3], above 100 µM.
As for `NC(=O)c1c(F)ccc(NCc2ccc(F)cc2F)c1F` [Compound F364, 3-((2′,4′-difluorobenzyl)amino)-2,6-difluorobenzamide], the minimal inhibitory concentration (MIC) in assay [1], in assay [2] and in assay [3] was above 100 µM throughout.
Consider `NC(=O)c1c(F)ccc(N(Cc2ccc(F)cc2F)Cc2ccc(F)cc2F)c1F` [Compound F365, 3-(bis(2′,4′-difluorobenzyl)amino)-2,6-difluorobenzamide], for which the minimum inhibitory concentration (MIC) is given as above 100 µM in assay [1], above 100 µM in assay [2] and below 50 µM in assay [3].
In the case of `NC(=O)c1c(F)ccc(NCc2c(F)cccc2F)c1F` [Compound F366, 3-((2′,6′-difluorobenzyl)amino)-2,6-difluorobenzamide], the MIC in assay [1], in assay [2] and in assay [3] was above 100 µM throughout.
In the case of `NC(=O)c1c(F)ccc(N(Cc2c(F)cccc2F)Cc2c(F)cccc2F)c1F` [Compound F367, 3-(bis(2′,6′-difluorobenzyl)amino)-2,6-difluorobenzamide], the MIC in assay [1], in assay [2] and in assay [3] was above 100 µM in each case.
For `CCCCCCCCC(=O)Nc1ccc(F)c(C(N)=O)c1F` [Compound F368, 2,6-difluoro-3-nonanamidobenzamide], the MIC in assay [1] (Escherichia coli) is above 100 µM; in assay [2] (Staphylococcus aureus, 29213), above 100 µM; in assay [3] (Bacillus subtilis, 168), above 100 µM.
On to `CC(C)=CCC/C(C)=C/CNc1ccc(F)c(C(N)=O)c1F` [Compound F369, (E)-3-((3,7-dimethyl-2,6-octadien-1-yl)amino)-2,6-difluorobenzamide], for which the MIC in assay [1] (Escherichia coli) is above 100 µM; in assay [2] (Staphylococcus aureus, 29213) it was above 100 µM; in assay [3] (Bacillus subtilis, 168), 50 µM (≈ 15.4 µg/mL).
Turning to `CCCCCC/C=C\CNc1ccc(F)c(C(N)=O)c1F` [Compound F370, (Z)-2,6-difluoro-3-(2-nonenylamino)benzamide], the MIC in assay [1] (Escherichia coli) was above 100 µM; in assay [2] (Staphylococcus aureus, 29213), 25 µM (≈ 7.41 µg/mL); in assay [3] (Bacillus subtilis, 168), 6.25 µM (≈ 1.85 µg/mL).
As for `CCCCCCCCCNc1c(Br)cc(F)c(C(N)=O)c1F` [Compound F371, 4-bromo-2,6-difluoro-3-(nonylamino)benzamide], the MIC in assay [1] (Escherichia coli) is above 100 µM; in assay [2] (Staphylococcus aureus, 29213), above 100 µM; in assay [3] (Bacillus subtilis, 168), 6.25 µM (≈ 2.36 µg/mL).
Turning to `CCCCOc1cccc(CNc2ccc(F)c(C(N)=O)c2F)c1` [Compound F373, 3-((3′-butoxybenzyl)amino)-2,6-difluorobenzamide], the MIC was above 100 µM in assay [1], 50 µM (≈ 16.7 µg/mL) in assay [2] and 25 µM (≈ 8.36 µg/mL) in assay [3].
The matching figures for `CCCCCOc1cccc(CNc2ccc(F)c(C(N)=O)c2F)c1` [Compound F376, 2,6-difluoro-3-((3′-(pentyloxy)benzyl)amino)benzamide]: above 100 µM, 50 µM (≈ 17.4 µg/mL) and 12.5 µM (≈ 4.35 µg/mL).
For `CCC(C)Oc1cccc(CNc2ccc(F)c(C(N)=O)c2F)c1` (stereo not drawn) [Compound F377, 3-((3′-(sec-butoxy)benzyl)amino)-2,6-difluorobenzamide], in that order: above 100 µM, above 100 µM and above 100 µM.
`NC(=O)c1c(F)ccc(NCc2cccc(OCc3ccc(C(F)(F)F)cc3)c2)c1F` [Compound F378, 2,6-difluoro-3-((3′-((4″-(trifluoromethyl)benzyl)oxy)benzyl)amino)benzamide]: the minimal inhibitory concentration (MIC) in assay [1], in assay [2] and in assay [3] was above 100 µM each time.
As for `CCCCCCCNc1ccc(F)c(C(N)=O)c1F` [Compound F391, 2,6-difluoro-3-(heptylamino)benzamide], the MIC in assay [1] (Escherichia coli) is above 100 µM; in assay [2] (Staphylococcus aureus, 29213), 50 µM (≈ 13.5 µg/mL); in assay [3] (Bacillus subtilis, 168), 50 µM (≈ 13.5 µg/mL).
As to `CCCCCCCCN(C)c1ccc(F)c(C(N)=O)c1F` [Compound F409, 2,6-difluoro-3-(methyl(octyl)amino)benzamide], the MIC was above 100 µM in assay [1] (Escherichia coli); 12.5 µM (≈ 3.73 µg/mL) in assay [2] (Staphylococcus aureus, 29213); 25 µM (≈ 7.46 µg/mL) in assay [3] (Bacillus subtilis, 168).
For `CCCCCCCCN(CC)c1ccc(F)c(C(N)=O)c1F` [Compound F410, 3-(ethyl(octyl)amino)-2,6-difluorobenzamide], in that order: above 100 µM, 50 µM (≈ 15.6 µg/mL) and 25 µM (≈ 7.81 µg/mL).
The matching figures for `CCCCCCCCCNc1cccc(C(N)=O)c1` [Compound F411, 3-(nonylamino)benzamide]: above 100 µM, above 100 µM and 6.25 µM (≈ 1.64 µg/mL).
For `CCCCCCCCNc1cccc(C(N)=O)c1` [Compound F412, 3-(octylamino)benzamide], in that order: above 100 µM, above 100 µM and 25 µM (≈ 6.21 µg/mL).
As to `CCCCCCCCCN(C)c1cccc(C(N)=O)c1` [Compound F413, 3-(methyl(nonyl)amino)benzamide], the MIC is above 100 µM in assay [1] (Escherichia coli); above 100 µM in assay [2] (Staphylococcus aureus, 29213); above 100 µM in assay [3] (Bacillus subtilis, 168).
For `CCCCCCCCN(C)c1cccc(C(N)=O)c1` [Compound F414, 3-(methyl(octyl)amino)benzamide], the MIC in assay [1] (Escherichia coli) is above 100 µM; in assay [2] (Staphylococcus aureus, 29213), above 100 µM; in assay [3] (Bacillus subtilis, 168), above 100 µM.

(Values after US20170348258A1, “3-Amino Benzamide Derivative Serving As B-Lactam Auxiliary Antibiotic, Preparation Method and Use Thereof” (THE HONG KONG POLYTECHNIC UNIVERSITY, priority 2014, published 2017).)
